This note sets out measurements from patent publication US10894037B2, “Inhibitors of bacterial two component signal transduction system and uses thereof” (priority 2017, dated 2021).

The structures appear in SMILES notation.

Common to all, as to type: binding
Experiment [1] deals with PmrA-DNA complex (Klebsiella pneumoniae, UniProt W9BNR5). Nature of the experiment: Fluorescence polarization (FP) assay of inhibition of PmrA-DNA complex formation. As to the method:
(§1) Fluorescence Polarization (FP) Measurements
(§2) Compounds, E1-E5, were purchased from InterBioScreen (Moscow, Russia) (E1: STOCK1S-95047; E2: STOCK1N-13224; E3: STOCK1N-16691; E4: STOCK 1 S-43938; E5: STOCK1S-55283), and the purity are over 90% examined by NMR. The oligonucleotides (5′-[…]-3′, SEQ ID NO: 2) labeled with 6-carboxyfluorescein (6-FAM) at the 5′-position, was dissolved in 10 mM sodium phosphate and 15 mM NaCl pH 7.0 for fluorescence polarization experiments. About 10 μl activated PmrA (prepared in 10 mM sodium phosphate and 15 mM NaCl at pH7.0) was first added into the well of ELISA plate. Then, 1 μl of serial diluted inhibitors, E1-E5, (prepared in the sample buffer of activated PmrA) were mixed with the PmrA (final concentration Of 30 μM) to reach the interested concentrations and incubated at 25° C. for 10 mins. Subsequently, 9 μl of 6-FAM-labeled DNA (final concentration of 10 nM) was added into the reaction, incubating at 25° C. for another 10 mins. Reactions were measured 3 times by use of a SpectraMax Paradigm plate reader (Molecular Devices, CA, USA) with excitation wavelength 485 nm and emission wavelength 535 nm. The inhibition % was derived according to the following equation:
(§3) [formula] in which (D), (P+D), and (P+I+D) are the polarization intensity of DNA alone, PmrA with DNA, and PmrA mixed with inhibitor then incubated with DNA, respectively.
(§4) Fluorescence polarization (FP) was first employed to access the inhibitory abilities of E1-E5 against the formation of PmrA-DNA complex in accordance with procedures described in the section of “Materials and Methods.” Results are depicted in FIG. 1, panels E and F, and Table 1.

For experiment [2], the target named is PmrA-DNA complex (Klebsiella pneumoniae, UniProt W9BNR5, I220D/W181G). Described as above. The settings on record: read-out: inhibition of PmrA binding to DNA (PmrA-DNA complex formation). As to the method:
as §1, §2, §3, §4

Experiment [3] deals with T1, PmrAC (C-terminal domain of PmrA) (Klebsiella pneumoniae, UniProt W9BNR5).
T1 sequence (W9BNR5 121-223): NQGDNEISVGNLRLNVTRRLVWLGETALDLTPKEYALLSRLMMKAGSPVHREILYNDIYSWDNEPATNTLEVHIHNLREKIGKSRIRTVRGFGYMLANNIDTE
Nature of the experiment: Isothermal titration calorimetry (ITC). The protocol: Isothermal Titration Calorimetry (ITC)
The binding affinities of PmrAC with compound, E1, was estimated by ITC using a MicroCal iTC200 microcalorimeter. The sample of PmrAC was prepared in reaction buffer (20 mM sodium phosphate, 100 mM NaCl, pH6.0). Compounds were also prepared in reaction buffer (E1=0.4 mM) and titrated into PmrAC (45 μM) at 25° C. The background heat generated from compound to buffer titration was subtracted, and the corrected heat form the binding reaction of PmrAC to E1 was used to derive the association constant (Ka), the enthalpy of binding (ΔH), the change in Gibbs free energy (ΔG), and the entropy changes ([…]) at 298K. All the data were analyzed by using Origin ITC Analysis (MicroCal Software, Northampton, Mass., USA).
(§5) The binding affinity of E1 toward PmrAC (C-terminal domain of PmrA) was further assessed by Isothermal titration calorimetry (ITC) and Bio-layer interferometer (BLI) at the condition described previously (Lou et al., Nature communication 2015, 6, 8838.) (sodium phosphate buffer pH6.0). According to the ITC results, the interaction of E1 with PmrAC appeared to be an exothermic reaction, with a change in enthalpy (ΔH) of −21.4 kcal/mol, change in entropy (AS) of −45.6 […], and N value of 1.09 (FIG. 2, panel G).

Experiment [4] has as its target T1, PmrAC (C-terminal domain of PmrA). Nature of the experiment: NMR (2D 1H-15N TROSY-HSQC) compound titration for dissociation constant. The protocol:
NMR Spectroscopy and Compound Titrations
The preparations of NMR samples were as described previously (Mscielag and Goldschmidt, Expert opinion on investigational drugs 2000, 9, 2351-2369.). Briefly, the activated and inactivated PmrA (0.3 ml, 0.25 mM) were prepared in pH8.0 buffer (20 mM Tris and 100 mM NaCl) with or without BeF3^− activation. PmrAC (0.3 ml, 0.25 mM) was prepared in pH8.0 buffer (20 mM Tris and 100 mM NaCl). All the protein solutions were further loaded in Shigemi NMR tubes (Shigemi Inc.). NMR experiments for activated/inactivated PmrA and PmrAC were conducted at 310 and 298K on Brucker AVANCE 600 or 800 NMR spectrometers (Bruker, Karlsruhe, Germany) equipped with a triple-resonance cryoprobe including a shielded z-gradient. The hetero-nuclear NMR experiments for backbone assignments were performed as described previously in a review article (Garcia-Calderon et al., Journal of Bacteriology 2007, 189, 6635-6644). All the acquired NMR spectra were processed by using NMRPipe (Chen and Groisman, Annual review of microbiology 2013, 67, 83-112) and analyzed with NMRViewJ8.0a.22 (Wosten et al., Molecular microbiology 2006, 60, 39-50). […] The chemical shift changes were calculated through the equation Δδ=[(ΔδNH)^2+(0.17×ΔδN)^2]^0.5, in which ΔδNH and ΔδN are the chemical shift differences for ^1HN and ^15N, respectively. […]

Experiment [5] shares this target. Nature of the experiment: Bio-layer interferometry (BLI). The protocol:
Bio-Layer Interferometry (BLI)
The BLI kinetics were obtained by using the ForteBio Octet RED96 instrument (ForteBio, Pall Life Sciences). Recombinant PmrAC carrying C-terminal 6× His tag was immobilized on the HIS1K biosensor in the reaction buffer containing 20 mM sodium phosphate, 100 mM NaCl, pH 6.0 at 25° C. for 180 s prior to kinetic experiment. For the association, the preloading biosensor was exposed to different concentration of E1 (0-37.5 μM) for the period of 300 s. Following the dissociation step, the sensor was subjected to the reaction buffer for 300 s. Kinetic constants, including Kon (association constant, M^−1s^−1) and Koff (dissociation constant, s^−1), were obtained by fitting the reaction model 1:1 kinetics to the reference-subtracted data. The equilibrium dissociation (KD) was calculated as the ratio of Koff to Kon. All calculation was determined using Data Analysis 7 software (ForteBio, Pall Life Sciences).
as §5

Chain of PmrA-DNA complex (Klebsiella pneumoniae, UniProt W9BNR5, I220D/W181G) (W9BNR5 whole entry I220D/W181G, one chain of several): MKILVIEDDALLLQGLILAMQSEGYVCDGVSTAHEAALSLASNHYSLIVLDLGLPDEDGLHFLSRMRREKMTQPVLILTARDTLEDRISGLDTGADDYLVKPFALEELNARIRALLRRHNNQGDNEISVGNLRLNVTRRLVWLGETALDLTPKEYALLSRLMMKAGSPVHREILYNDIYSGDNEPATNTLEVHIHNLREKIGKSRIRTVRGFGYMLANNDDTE
Chain of PmrA-DNA complex (Klebsiella pneumoniae, UniProt W9BNR5) (W9BNR5 whole entry I220D/W181G, one chain of several): as above

`O=S(=O)(O)CC1CSSCC(CS(=O)(=O)O)SS1` (centres unmarked) [Compound E3] came in with an IC50 in experiment [1] of 100 ± 2.5 µM. Moreover, the inhibition at 50 µM in experiment [2] stood at 27.4 ± 1.8%.

In turn, `O=S(=O)(O)CCOCC1CSSCC(COCCS(=O)(=O)O)SS1` (centres unmarked) [Compound E2] displayed an IC50 in experiment [1] of 42.5 ± 2.9 µM. Moreover, in experiment [2], the inhibition at 50 µM turned out to be 55.9 ± 2.7%.

Consider `O=S(=O)(O)c1ccc(-c2ncc(-c3ccc(-c4cnc(-c5ccc(S(=O)(=O)O)cc5)o4)cc3)o2)cc1` [Compound E1], for which the Kd in experiment [3] is 1.7 µM; in experiment [4] it was 126 ± 34.6 µM; in experiment [5] it was 2.6 ± 0.1 µM. The IC50 in experiment [1] came out at 10.2 ± 2.6 µM. Further, in experiment [2], the inhibition at 50 µM came out at 70.2 ± 3.2%. Further, the koff in experiment [5] (read-out: Koff rate) was determined as 0.251 s⁻¹. Moreover, the kon in experiment [5] (read-out: Kon rate) came out at 94900 M⁻¹ s⁻¹.
